This note sets out measurements from patent US9056176B2, “1-phenyl-2-pyridinyl alkyl alcohol compounds as phosphodiesterase inhibitors” (CHIESI FARMACEUTICI S.P.A., priority 2009, dated 2015).

The subject of assay [1] is OA-induced contraction in guinea-pig trachea. Briefly: OA-induced contraction of tracheal preparations from OA-sensitised guinea pigs (organ bath). The following applies: 30-minute pre-treatment. As to the method:
Zig-zag tracheal segments are obtained from male Ovoalbumin (OA)-sensitised guinea pigs and two preparations are obtained from a trachea. Each preparation is placed in 20-ml organ bath filled with oxygenated (O2 95% and CO2 5%) normal Krebs-Henseleit solution and maintained at 37° C. Tracheal preparations are connected to isometric force transducers under a resting tone of 1 g. After an equilibration period of 60 minutes, tracheal preparations are pretreated for 30 minutes with C1 (10^-7 M), Carmoterol (3*10^-10 M), the association C1 and Carmoterol or vehicle, respectively, followed by cumulative administration of OA (10^−10-10^−5 g/ml). At the end of the OA administration a maximal concentration of carbachol (10^−5 M) is added to obtain the maximal contraction of each preparation. The effects are expressed as percent values of the carbachol-induced maximal response (100%).

Assay [2] concerns LPS-induced TNF-α release in human PBMCs (PDE4 inhibitory activity). Briefly: LPS-induced TNF-α release in peripheral blood mononuclear cells (PBMCs) assay. It counts as cell-based. The note with it: PBMC, LPS 3 ng/ml, 18 hours, TNF-α by ELISA, mean ± 95% confidence limits, read-out: molar concentration producing 50% inhibition of LPS-induced TNF-α release (IC50). As to the method:
The assay, which is based on the known inhibitory activity exerted by PDE4 inhibitors on the lipopolyshaccarides (LPS)-induced tumour necrosis factor-alpha (TNF-α release in peripheral blood mononuclear cells (PBMCs), is performed according to a method previously described (Hatzelmann A et al., J. Pharmacol. Exp. Ther., 2001; 297:267-279; and Draheim R et al., J. Pharmacol. Exp. Ther., 2004; 308:555-563, both of which are incorporated herein by reference in their entireties.
Cryopreserved human PBMCs, (100 μl/well) are incubated in 96-well plates (10^5 cells/well), for 30 minutes, in the presence or absence (50 microl) of the test compounds whose concentrations range from 10^−12 M to 10^−6 M. Subsequently, LPS (3 ng/ml) is added.
After 18 hours incubation at 37° C. in a humidified incubator under an atmosphere of 95% air and 5% CO2, culture medium is collected and TNF-α is measured by ELISA.
The effects of the tested compounds are calculated as percentage of inhibition of TNF-α release, assuming LPS-induced TNF-α production in the absence of inhibitor compound as 100% and basal TNF-α production of PBMCs in the absence of LPS as 0%.
(In an ELISA, binding on a coated surface is turned into a signal by an enzyme label.)

One may read the inhibition as the drop in the measured response relative to a control, in per cent. As to `CS(=O)(=O)Nc1ccc(C(=O)OC(Cc2c(Cl)cncc2Cl)c2ccc(OC(F)F)c(OCC3CC3)c2)cc1OCC1CC1` (single isomer, unassigned; (-)) [Compound C1, (−)-3-Cyclopropylmethoxy-4-methanesulfonylamino-benzoic acid 1-(3-cyclopropylmethoxy-4-difluoromethoxy-phenyl)-2-(3,5-dichloro-pyridin-4-yl)-ethyl ester], the inhibition at 0.1 µM in assay [1] (Cavia porcellus, C1 10^−7 M) stood at 23%. The IC50 in assay [2] is 0.06 to 4.4 nM.
Take `COc1ccc(C[C@@H](C)NC[C@H](O)c2ccc(O)c3[nH]c(=O)ccc23)cc1` [Carmoterol, carmoterol, reference compound]: the “inhibition of the OA-induced contraction” value in assay [1] (Carmoterol 3*10^-10 M) was found to be 18%.
